Target: T1, human Cystic Fibrosis Transmembrane Conductance Regulator (CFTR) harboring the ΔF508 mutation (Homo sapiens, UniProt P13569, DEL508-508)
T1 construct: expressed in transfected cells; host or cells: H441 carcinoma line (G418-selected)
Assay: H441 cell ΔF508-CFTR-HRP cell surface assay (Emax and EC50)
Format: cell-based
Conditions: for Emax: NCI-H441, NA = Not active
In short: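 H441 and 41o- bronchial epithelial cells expressing ΔF508-CFTR with an extracellular-loop-4 HRP tag were treated with a 15-point compound series (24.5–0.001 μM) for two nights, H441 at 27° C, 41o- at 37° C with 0.0005 mg/ml doxycycline. Surface HRP luminescence read; % of maximum VX809 signal and EC50 derived.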

T1 sequence (P13569 with tags, fused parts or gaps DEL508-508): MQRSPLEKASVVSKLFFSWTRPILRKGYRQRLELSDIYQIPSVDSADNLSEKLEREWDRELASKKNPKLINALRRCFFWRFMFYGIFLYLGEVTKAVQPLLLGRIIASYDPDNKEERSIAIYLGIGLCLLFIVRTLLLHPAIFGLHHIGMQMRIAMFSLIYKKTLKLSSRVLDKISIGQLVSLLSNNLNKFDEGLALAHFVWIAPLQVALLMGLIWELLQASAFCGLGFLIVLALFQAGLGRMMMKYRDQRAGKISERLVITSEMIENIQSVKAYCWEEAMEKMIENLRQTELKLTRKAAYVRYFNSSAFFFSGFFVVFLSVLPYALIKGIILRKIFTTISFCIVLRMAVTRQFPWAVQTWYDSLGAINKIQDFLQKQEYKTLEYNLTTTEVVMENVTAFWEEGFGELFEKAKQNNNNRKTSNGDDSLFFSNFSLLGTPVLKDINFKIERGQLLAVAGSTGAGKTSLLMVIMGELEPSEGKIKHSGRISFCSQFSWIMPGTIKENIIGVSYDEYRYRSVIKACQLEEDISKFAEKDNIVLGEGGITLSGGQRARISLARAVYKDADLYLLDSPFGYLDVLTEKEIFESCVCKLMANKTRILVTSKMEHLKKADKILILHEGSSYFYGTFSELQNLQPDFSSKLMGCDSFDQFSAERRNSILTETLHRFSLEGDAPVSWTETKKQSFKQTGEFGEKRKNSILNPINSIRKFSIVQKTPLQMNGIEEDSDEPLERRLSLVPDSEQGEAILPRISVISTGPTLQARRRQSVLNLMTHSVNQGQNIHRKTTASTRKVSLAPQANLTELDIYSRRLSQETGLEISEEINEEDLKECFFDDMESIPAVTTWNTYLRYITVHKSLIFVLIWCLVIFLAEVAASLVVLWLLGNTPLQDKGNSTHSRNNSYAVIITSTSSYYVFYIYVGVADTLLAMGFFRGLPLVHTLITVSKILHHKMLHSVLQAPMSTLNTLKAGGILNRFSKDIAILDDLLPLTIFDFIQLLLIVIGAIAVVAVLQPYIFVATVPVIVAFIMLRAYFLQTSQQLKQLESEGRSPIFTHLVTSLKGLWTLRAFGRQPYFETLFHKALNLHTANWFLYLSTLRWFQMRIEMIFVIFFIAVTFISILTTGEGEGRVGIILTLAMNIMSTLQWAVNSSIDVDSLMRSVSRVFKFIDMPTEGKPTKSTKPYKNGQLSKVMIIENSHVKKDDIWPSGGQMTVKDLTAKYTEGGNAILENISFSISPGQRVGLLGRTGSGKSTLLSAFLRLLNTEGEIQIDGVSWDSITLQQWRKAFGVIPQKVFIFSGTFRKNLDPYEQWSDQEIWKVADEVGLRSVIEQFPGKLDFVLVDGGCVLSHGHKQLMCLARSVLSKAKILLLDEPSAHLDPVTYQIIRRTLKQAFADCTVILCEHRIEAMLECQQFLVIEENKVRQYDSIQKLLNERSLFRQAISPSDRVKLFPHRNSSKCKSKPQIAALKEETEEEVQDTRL

| SMILES | EC50 [nM] | Emax [%] |
| --- | --- | --- |
| C=CCOc1ccc(C[C@H](NC(=O)c2ccc3ccccc3c2OCc2ccc(C(F)(F)F)cc2)C(=O)O)cc1 [Example 92, (S)-3-(4-(allyloxy)phenyl)-2-(1-((4-(trifluoromethyl)benzyl)oxy)-2-naphthamido)propanoic Acid] | 14000 | 52.6 |
| CC(C)(C)[C@H](NC(=O)c1ccc2ccccc2c1OCc1ccc2c(c1)OCO2)C(=O)O [Example 79, (S)-2-(1-(benzo[d][1,3]dioxol-5-ylmethoxy)-2-naphthamido)-3,3-dimethylbutanoic Acid] | 2500 | 9.1 |
| CC1([C@H](NC(=O)c2ccc3ccc(C(F)(F)F)cc3c2OCc2ccc(C(F)(F)F)cc2)C(=O)O)CC1 [compound 298, (S)-2-(1-methylcyclopropyl)-2-(7-(trifluoromethyl)-1-((4-(trifluoromethyl)benzyl)oxy)-2-naphthamido)acetic Acid] | 700 | 153 |
| O=C(N[C@H](C(=O)O)C(c1ccccc1)c1ccccc1)c1ccc2cc(F)ccc2c1OCc1ccc(Cl)c(Cl)c1 [Example 209, (S)-2-(1-((3,4-dichlorobenzyl)oxy)-6-fluoro-2-naphthamido)-3,3-diphenylpropanoic Acid] | 400 | 71 |
| COc1ccc2c(OCc3ccc(SC(F)(F)F)cc3)c(C(=O)N[C@H](C(=O)O)C(C)(C)C)ccc2c1 [Example 63, (S)-2-(6-methoxy-1-((4-((trifluoromethyl)thio)benzyl)oxy)-2-naphthamido)-3,3-dimethylbutanoic Acid] | 1500 | 43.6 |
| CC(C)(c1ccccc1)[C@H](NC(=O)c1ccc2cc(F)ccc2c1OCc1ccc(SC(F)(F)F)cc1)C(=O)O [Example 22, (S)-2-(6-fluoro-1-((4-((trifluoromethyl)thio)benzyl)oxy)-2-naphthamido)-3-methyl-3-phenylbutanoic Acid] | 300 | 63.6 |
| O=C(N[C@H](C(=O)O)C(c1ccccc1)c1ccccc1)c1ccc2ccccc2c1OCc1ccc(Cl)c(Cl)c1 [Example 207, (S)-2-(1-((3,4-dichlorobenzyl)oxy)-2-naphthamido)-3,3-diphenylpropanoic Acid] | 20400 | 40.4 |
| Cc1cc(COc2c(C(=O)NC(C(=O)O)[C@@H](C)OCc3ccccc3)ccc3ccccc23)no1 (stereo partly drawn) [Example 145, (3R)-3-(benzyloxy)-2-(1-((5-methylisoxazol-3-yl)methoxy)-2-naphthamido)butanoic Acid] | 12000 | 72.6 |
| CC(C)(C)[C@H](NC(=O)c1ccc2ccc(C(F)(F)F)cc2c1OCc1ccc(OC(F)(F)F)cc1)C(=O)O [compound 292, (S)-3,3-dimethyl-2-(1-((4-(trifluoromethoxy)benzyl)oxy)-7-(trifluoromethyl)-2-naphthamido)butanoic Acid] | 200 | 219 |
| NC(N)=Nc1ccc(C[C@@H](NC(=O)c2ccc3ccccc3c2OCc2ccc(C(F)(F)F)cc2)C(=O)O)cc1 [Example 105, (R)-3-(4-((diaminomethylene)amino)phenyl)-2-(1-((4-(trifluoromethyl)benzyl)oxy)-2-naphthamido)propanoic Acid] |  | 18.8 |
| O=C(N[C@@H](Cc1ccccc1)C(=O)O)c1ccc2ccccc2c1OCc1ccc(Br)cc1 [Example 122, (1-((4-bromobenzyl)oxy)-2-naphthoyl)-L-phenylalanine] | 300 | 24.5 |
| CC(C)C#CCOc1c(C(=O)N[C@H](C(=O)O)C(C)(C)C)ccc2ccccc12 [Example 235, (2S)-3,3-dimethyl-2-[[1-(4-methylpent-2-ynoxy)naphthalene-2-carbonyl]amino]butanoic Acid] | 15200 | 211 |
| O=C(N[C@H](Cc1ccccc1)C(=O)O)c1ccc2ccccc2c1OCc1ccc(C(F)(F)F)cc1 [Example 89, (1-((4-(trifluoromethyl)benzyl)oxy)-2-naphthoyl)-D-phenylalanine] | 1400 | 47.6 |
| CC1(C(NC(=O)c2ccc3cc(F)ccc3c2OCc2ccc(C(F)(F)F)cc2)C(=O)O)CC1 (stereo not shown) [Example 60, 2-(6-fluoro-1-((4-(trifluoromethyl)benzyl)oxy)-2-naphthamido)-2-(1-methylcyclopropyl)acetic Acid] | 1600 | 90.3 |
| Cc1ccc2ccc(C(=O)N[C@@H](C(=O)O)C(C)(C)C)c(OCc3ccc(OC(F)(F)F)cc3)c2c1 [Example 289, (R)-3,3-dimethyl-2-(7-methyl-1-((4-(trifluoromethoxy)benzyl)oxy)-2-naphthamido)butanoic Acid] | 1500 | 109 |
| CC(C)(C)C[C@H](NC(=O)c1ccc2cc(F)ccc2c1OCc1ccc(S(F)(F)(F)(F)F)cc1)C(=O)O [Example 112, (S)-2-(6-fluoro-1-((4-(pentafluoro-16-sulfanyl)benzyl)oxy)-2-naphthamido)-4,4-dimethylpentanoic Acid] | 1900 | 58.1 |

| SMILES | EC50 [nM] | Emax [%] |
| --- | --- | --- |
| O=C(N[C@H](C(=O)O)C(c1ccccc1)c1ccccc1)c1ccc2ccccc2c1OCc1ccc(C(F)(F)F)cn1 [Example 132, (S)-3,3-diphenyl-2-(1-((5-(trifluoromethyl)pyridin-2-yl)methoxy)-2-naphthamido)propanoic Acid] | 11600 | 49.2 |
| CCCC(C)(CC)[C@H](NC(=O)c1ccc2ccc(F)cc2c1OCc1ccc(OC(F)(F)F)cc1)C(=O)O (stereo partly drawn) [compound 290, (2S)-3-ethyl-2-(7-fluoro-1-((4-(trifluoromethoxy)benzyl)oxy)-2-naphthamido)-3-methylhexanoic Acid] | 200 | 225 |
| CC(C)(C)C[C@H](NC(=O)c1ccc2cc(F)ccc2c1OCc1ccc(SC(F)(F)F)cc1)C(=O)O [Example 117, (S)-2-(6-fluoro-1-((4-((trifluoromethyl)thio)benzyl)oxy)-2-naphthamido)-4,4-dimethylpentanoic Acid] | 1600 | 47 |
| COC(=O)[C@H](Cc1ccccc1)NC(=O)c1ccc2ccccc2c1OCc1ccc(Cl)c(Cl)c1 [Example 101, Methyl (1-((3,4-dichlorobenzyl)oxy)-2-naphthoyl)-L-phenylalaninate] | 6700 | 79.1 |
| O=C(N[C@@H](Cc1ccccc1)C(=O)O)c1ccc2ccccc2c1OCc1ccc(Cl)cc1 [Example 98, (1-((4-chlorobenzyl)oxy)-2-naphthoyl)-L-phenylalanine] |  | 6 |
| COC(C)(C)[C@H](NC(=O)c1ccc2cc(F)ccc2c1OCc1ccc(SC(F)(F)F)cc1)C(=O)O [Example 118, (S)-2-(6-fluoro-1-((4-((trifluoromethyl)thio)benzyl)oxy)-2-naphthamido)-3-methoxy-3-methylbutanoic Acid] | 2800 | 71 |
| CC(C)(C)[C@H](NC(=O)c1ccc2ccccc2c1OCC#CC1CC1)C(=O)O [Example 270, (2S)-2-[[1-(3-cyclopropylprop-2-ynoxy)naphthalene-2-carbonyl]amino]-3,3-dimethyl-butanoic Acid] | 12200 | 166 |
| CN(C)c1ccc2c(OCc3ccc(C(F)(F)F)cc3)c(C(=O)N[C@H](C(=O)O)C(C)(C)C)ccc2c1 [compound 85, (S)-2-(6-(dimethylamino)-1-((4-(trifluoromethyl)benzyl)oxy)-2-naphthamido)-3,3-dimethylbutanoic Acid] | 1600 | 53 |
| CC(C)(C)[C@H](NC(=O)c1ccc2ccccc2c1OCc1ccc(C(F)(F)F)cn1)C(=O)O [Example 2, (S)-3,3-dimethyl-2-(1-((5-(trifluoromethyl)pyridin-2-yl)methoxy)-2-naphthamido)butanoic Acid] | 4800 | 151 |
| CC(C)(C)[C@H](NC(=O)c1ccc2ccccc2c1OCc1ccc(Br)cc1)C(=O)O [Example 46, (S)-2-(1-((4-bromobenzyl)oxy)-2-naphthamido)-3,3-dimethylbutanoic Acid] | 3500 | 26.9 |
| COCC[C@H](NC(=O)c1ccc2ccccc2c1OCc1ccc(C(F)(F)F)cc1)C(=O)O [Example 137, O-methyl-N-(1-((4-(trifluoromethyl)benzyl)oxy)-2-naphthoyl)-L-homoserine] | 16400 | 38.4 |
| CC(C)(c1ccccc1)[C@H](NC(=O)c1ccc2ccccc2c1OCc1ccc(S(C)(=O)=O)cc1)C(=O)O [Example 23, (S)-3-methyl-2-(1-((4-(methylsulfonyl)benzyl)oxy)-2-naphthamido)-3-phenylbutanoic Acid] | 9800 | 29.2 |
| CC(C)(O)[C@H](NC(=O)c1ccc2ccccc2c1OCc1ccc(C(F)(F)F)cc1)C(=O)O [Example 138, (S)-3-hydroxy-3-methyl-2-(1-((4-(trifluoromethyl)benzyl)oxy)-2-naphthamido)butanoic Acid] | 16400 | 22.4 |
| CC(C)(C)C[C@H](NC(=O)c1ccc2cc(N)ccc2c1OCc1ccc(C(F)(F)F)cc1)C(=O)O [Example 186, (S)-2-(6-amino-1-((4-(trifluoromethyl)benzyl)oxy)-2-naphthamido)-4,4-dimethylpentanoic Acid] | 2700 | 46.6 |
| O=C(N[C@@H](Cc1ccc(C(F)(F)F)cc1)C(=O)O)c1ccc2cc(F)ccc2c1OCC1CCCCC1 [Example 204, (S)-2-(1-(cyclohexylmethoxy)-6-fluoro-2-naphthamido)-3-(4-(trifluoromethyl)phenyl)propanoic Acid] |  | 6.8 |
| COc1ccc2c(OCc3ccc(C(F)(F)F)cc3)c(C(=O)N[C@@H](CC(C)(C)C)C(=O)O)ccc2c1 [Example 161, (S)-2-(6-methoxy-1-((4-(trifluoromethyl)benzyl)oxy)-2-naphthamido)-4,4-dimethylpentanoic Acid] | 3200 | 47.7 |
